# Results taken from patent US9999650B2, “Peptide and peptidomimetic inhibitors” (Ra Pharmaceuticals, Inc., priority 2012, dated 2018).
# Numbered stars: 1 amine (or outer) side, 2 acyl side, 3 side chain; on linkers, the order of the positions; unused ones are H or OH. Bridge positions count the residues as written; N and C are the ends. Square brackets hold non-standard residues; d marks the D form. Peptide text beside a SMILES is read from it. X9 = O=C(C[C@H](C(=O)[*:2])C1CCCCC1)[C@@H]1CCCN1[*:1]; Phe(4-CH2NH2) = NCc1ccc(C[C@H](N)C(=O)O)cc1; Phe(4-Cl) = N[C@@H](Cc1ccc(Cl)cc1)C(=O)O; X3 = O=C(C(Cc1ccc(Br)s1)N[*:1])[*:2]; mXylylene = c1cc(C[*:1])cc(C[*:2])c1; NMeI = CC[C@H](C)[C@H](NC)C(=O)O; X2 = O=C(Cc1cccc(C[*:2])c1)[*:1]; Gly(cPr) = N[C@H](C(=O)O)C1CC1; dPhg = N[C@@H](C(=O)O)c1ccccc1; Chg = N[C@H](C(=O)O)C1CCCCC1; Phg = N[C@H](C(=O)O)c1ccccc1; Tle = CC(C)(C)[C@H](N)C(=O)O; Nle = CCCC[C@H](N)C(=O)O; Ac5c = NC1(C(=O)O)CCCC1; Nva = CCC[C@H](N)C(=O)O; Aib = CC(C)(N)C(=O)O; Mpa = O=C(O)CCS
# Target: T1, human plasma kallikrein (Homo sapiens, UniProt P03952)
# T1 construct: purchased Enzyme Research Laboratories HPKa 1303
# T1 sequence (P03952 20-390 limits assumed): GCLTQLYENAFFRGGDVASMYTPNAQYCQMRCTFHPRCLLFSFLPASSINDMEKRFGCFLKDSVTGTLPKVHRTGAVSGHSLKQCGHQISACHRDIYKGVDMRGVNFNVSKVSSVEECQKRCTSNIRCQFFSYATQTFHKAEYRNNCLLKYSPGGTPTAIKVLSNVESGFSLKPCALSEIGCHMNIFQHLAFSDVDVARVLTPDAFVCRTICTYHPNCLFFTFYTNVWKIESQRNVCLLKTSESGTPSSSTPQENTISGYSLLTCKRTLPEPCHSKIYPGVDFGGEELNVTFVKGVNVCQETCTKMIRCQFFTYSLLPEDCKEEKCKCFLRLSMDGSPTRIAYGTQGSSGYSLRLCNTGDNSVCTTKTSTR
# T1 sequence (P03952 391-638 limits assumed): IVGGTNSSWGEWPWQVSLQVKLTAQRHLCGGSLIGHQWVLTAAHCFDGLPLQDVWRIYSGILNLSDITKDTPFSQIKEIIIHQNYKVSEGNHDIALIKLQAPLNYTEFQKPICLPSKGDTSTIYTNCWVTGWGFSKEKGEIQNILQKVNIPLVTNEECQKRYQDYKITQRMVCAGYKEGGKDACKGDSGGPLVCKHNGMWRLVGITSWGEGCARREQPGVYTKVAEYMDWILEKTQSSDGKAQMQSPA
# Experiment: Enzyme inhibition assay (fluorogenic substrate H-Pro-Phe-Arg-AMC)
# Type: biochemical
# Conditions: Kallikrein inhibitory activity; 1 nM activated human kallikrein, 500 μM H-Pro-Phe-Arg-AMC, 1 hour room temperature; read-out: Avg. IC50
# Procedure: Activated human plasma kallikrein (Enzyme Research Laboratories, HPKa 1303) was reacted with H-Pro-Phe-Arg-7-amido-4-methylcoumarin (H-Pro-Pre-Arg-AMC) (a fluorogenic substrate for plasma as well as pancreatic and urinary kallikreins; Bachem I-1295) and candidate inhibitory peptides to determine the IC50 of the inhibitor.
# Ten 8-fold serial dilutions of peptides (10 mM DMSO stocks) were performed in DMSO and then added to TCNB (50 mM Tris-HCl pH 7.2, 150 mM NaCl, 10 mM CaCl2, 0.05% Brij-35) and sonicated. 50 μL of the peptide dilutions were added to microtitre plates (96 well, black non-binding surface, Corning, 3650) and incubated for 5 minutes at room temperature with 4 nM activated human kallikrein (final concentration after addition of fluorogenic substrate: 1 nM). The samples were then incubated for 1 hour at room temperature with 2 mM H-Pro-Phe-Arg-AMC (final concentration 500 μM). Relative Fluorescence Units (RFU) were measured at excitation/emission 360 nm/460 nm by a SpectraMax M3.
row,IC50 [nM],Compound
1,118,"CC(=O)N[C@H]1CSCc2cccc(c2)CSC[C@@H](C(=O)N[C@@H](CCCNC(=N)N)C(=O)N[C@H](C(N)=O)C2CC2)NC(=O)[C@H](c2ccccc2)NC(=O)[C@H](CO)NC(=O)[C@@H](C)NC1=O [Compound R2070, [mXylyl(1,5)]Ac-C-a-S-Phg-CR-Cppg-NH2] (Ac-C[dA]S[Phg]CR[Gly(cPr)]-NH2; linker 1-5 via mXylylene)"
2,0.501,"CC[C@H](C)[C@@H]1NC(=O)[C@H](CO)NC(=O)[C@H](CCC(=O)O)NC(=O)[C@@H](NC(=O)[C@@H](N)CCSC)CSCc2cccc(c2)CSC[C@@H](C(=O)N[C@@H](CCCNC(=N)N)C(=O)N[C@H](C(=O)N[C@@H](CC(C)C)C(=O)N[C@@H](CCCNC(=N)N)C(=O)N[C@@H](Cc2ccc(O)cc2)C(=O)N[C@@H](CO)C(=O)N[C@@H](CCC(=O)O)C(N)=O)C(C)C)NC1=O [Compound R2004, [mXylyl(2,6)]MCESICRVLRYSE-NH2] (H-MCESICRVLRYSE-NH2; linker 2-6 via mXylylene)"
3,26,"CC[C@H](C)[C@H]1C(=O)N[C@H](C(=O)N[C@@H](CCCNC(=N)N)C(=O)N[C@H](C(N)=O)C(C)C)CSCc2cccc(c2)CSC[C@H](NC(=O)[C@@H](N)CCSC)C(=O)N[C@@H](CCC(=O)O)C(=O)N[C@@H](CO)C(=O)N1C [Compound R2026, [mXylyl(2,6)]MCES-nMeI-CRV-NH2] (H-MCES[NMeI]CRV-NH2; linker 2-6 via mXylylene)"
4,> 4700,"CC(C)(C)[C@H](NC(=O)[C@H](CCCNC(=N)N)NC(=O)[C@@H]1CSCc2cccc(c2)CSCCC(=O)N2CCC[C@H]2C(=O)N[C@H](c2ccccc2)C(=O)N1)C(N)=O [Compound R2187, [mXylyl(1,4)](des-NH2)C-P-(D)Phg-CR-Tbg-NH2] ([Mpa]P[dPhg]CR[Tle]-NH2; linker 1-4 via mXylylene)"
5,1460,CC(C)(C)[C@H](NC(=O)[C@H](CCCNC(=N)N)NC(=O)[C@@H]1CSCc2cccc(c2)/C=C/CC(=O)N2CCC[C@H]2C(=O)N[C@@H](C2CCCCC2)C(=O)N1)C(N)=O [Compound R2259]
6,> 100000,"CC(C)(C)[C@H](NC(=O)C(Cc1ccc(Br)s1)NC(=O)[C@@H]1CSCc2cccc(c2)CSCCC(=O)N2CCC[C@H]2C(=O)N[C@@H](c2ccccc2)C(=O)N1)C(N)=O (stereo partly shown) [Compound R2219, [mXylyl(1,4)](des-NH2)C-P-Phg-C-ABP-Tbg-NH2] ([Mpa]P[Phg]C[X3][Tle]-NH2; linker 1-4 via mXylylene)"
7,3.1,"CSCC[C@H](N)C(=O)N[C@H]1CSCc2cccc(c2)CSC[C@@H](C(=O)N[C@@H](CO)C(=O)N[C@@H](CCCNC(=N)N)C(N)=O)NC(=O)[C@H](CCC(=O)O)NC(=O)[C@H]([C@@H](C)O)NC(=O)[C@H](Cc2c[nH]c3ccccc23)NC(=O)[C@@H]2CCCN2C(=O)[C@H](CO)NC(=O)[C@H](Cc2c[nH]c3ccccc23)NC(=O)[C@H](Cc2ccc(O)cc2)NC(=O)[C@H](CC(N)=O)NC1=O [Compound R2003, [mXylyl(2,11)]MCNYWSPWTECSR-NH2] (H-MCNYWSPWTECSR-NH2; linker 2-11 via mXylylene)"
8,> 14300,"CC(=O)N[C@@H](CS)C(=O)N[C@@H](CC(N)=O)C(=O)N[C@@H](Cc1ccc(O)cc1)C(=O)N[C@@H](Cc1c[nH]c2ccccc12)C(=O)N[C@@H](CO)C(=O)N1CCC[C@@H]1C(=O)N[C@@H](Cc1c[nH]c2ccccc12)C(=O)N[C@H](C(=O)N[C@@H](C)C(=O)N[C@@H](CS)C(N)=O)[C@@H](C)O [Compound R2229, Ac-CNYWSpWTAC-NH2] (Ac-CNYWS[dP]WTAC-NH2)"
9,2000,"CCC[C@H](N)C(=O)N[C@H]1CSCc2cccc(c2)CSC[C@@H](C(=O)N[C@@H](Cc2ccc(CN)cc2)C(=O)N[C@H](C(N)=O)C(C)C)NC(=O)[C@H]([C@@H](C)CC)NC(=O)[C@H](CO)NC(=O)[C@H](CCC(=O)O)NC1=O [Compound R2021, [mXylyl(2,6)]Nvl-CESIC-Phe(4-CH2NH2)-V-NH2] (H-[Nva]CESIC[Phe(4-CH2NH2)]V-NH2; linker 2-6 via mXylylene)"
10,> 100000,"Ac-SPWTECSA-NH2 [Compound R2120, Ac-SPWTECSA-NH2]"
11,> 75000,CC[C@@H](C)[C@@H]1NC(=O)CCCCCC/C=C/C[C@@H](C(=O)N[C@@H](CCCNC(=N)N)C(=O)N[C@H](C(N)=O)C(C)C)NC1=O [Compound R2241]
12,35.6,"Ac-CNYWSPWTEA-NH2 [Compound R2127, Ac-CNYWSPWTEA-NH2]"
13,> 100000,CC(C)(C)[C@H](NC(=O)[C@H](CCCNC(=N)N)NC(=O)[C@@H]1CCCn2cc(nn2)CCCCC(=O)N2CCC[C@H]2C(=O)N[C@@H](C2CCCCC2)C(=O)N1)C(N)=O [Compound R2248]
14,6.1,"CCCC[C@@H]1NC(=O)[C@@H](NC(C)=O)CSCc2cccc(c2)CSC[C@@H](C(=O)N[C@@H](CCCNC(=N)N)C(=O)N[C@H](C(N)=O)C(C)(C)C)NC(=O)[C@H](c2ccccc2)NC(=O)[C@H](CO)NC1=O [Compound R2065, [mXylyl(1,5)]Ac-C-Nle-S-Phg-CR-Tbg-NH2] (Ac-C[Nle]S[Phg]CR[Tle]-NH2; linker 1-5 via mXylylene)"
15,474,CC(C)(C)[C@H](NC(=O)[C@H](CCCNC(=N)N)NC(=O)[C@@H]1CSCc2cccc(c2)CSCCC(=O)N2CCC[C@H]2C(=O)C[C@@H](C2CCCCC2)C(=O)N1)C(N)=O [Compound R2247] ([Mpa][X9]CR[Tle]-NH2; linker 1-3 via mXylylene)
16,> 100000,CC(C)(C)[C@H](NC(=O)[C@H](CCCNC(=N)N)NC(=O)[C@@H]1CCn2cc(nn2)CCCCC(=O)N2CCC[C@H]2C(=O)N[C@@H](C2CCCCC2)C(=O)N1)C(N)=O [Compound R2249]
17,13,"CC[C@H](C)[C@@H]1NC(=O)[C@H](C)NC(=O)[C@H](C)NC(=O)CCSCc2cccc(c2)CSC[C@@H](C(=O)N[C@@H](CCCNC(=N)N)C(=O)N[C@H](C(N)=O)C(C)C)NC1=O [Compound R2072, [mXylyl(1,5)](des-NH2)C-AAICRV-NH2] ([Mpa]AAICRV-NH2; linker 1-5 via mXylylene)"
18,2000,"CC[C@H](C)[C@H](NC(=O)[C@H](CO)NC(=O)[C@H](CCC(=O)O)NC(=O)[C@H](CS)NC(=O)[C@@H](N)CCSC)C(=O)N[C@@H](CS)C(=O)N[C@@H](CCCNC(=N)N)C(=O)N[C@H](C(N)=O)C(C)C [Compound R2007, MCESICRV-NH2] (H-MCESICRV-NH2; N-terminus assumed)"
19,> 8880,"C[C@@H]1NC(=O)C(C)(C)NC(=O)CCSCc2cccc(c2)CSC[C@@H](C(=O)N[C@@H](CCCNC(=N)N)C(=O)O)NC(=O)[C@H](C2CCCCC2)NC1=O [Compound R2153, [mXylyl(1,5)](des-NH2)C-Aib-A-Chg-CR-OH] ([Mpa][Aib]A[Chg]CR-OH; linker 1-5 via mXylylene)"
20,> 75000,"CC(C)(C)[C@H](NC(=O)[C@H](Cc1ccc(Cl)cc1)NC(=O)[C@@H]1CSCc2cccc(c2)CSCCC(=O)N2CCC[C@H]2C(=O)N[C@@H](c2ccccc2)C(=O)N1)C(N)=O [Compound R2205, [mXylyl(1,4)](des-NH2)C-P-Phg-C-4-Cl-Phe-Tbg-NH2] ([Mpa]P[Phg]C[Phe(4-Cl)][Tle]-NH2; linker 1-4 via mXylylene)"
21,164,CC(C)(C)[C@H](NC(=O)[C@H](CCCNC(=N)N)NC(=O)[C@@H]1CSCc2cccc(c2)C/C=C/CC(=O)N2CCC[C@H]2C(=O)N[C@@H](C2CCCCC2)C(=O)N1)C(N)=O [Compound R2261]
22,> 100000,"Ac-YWSPWTECSA-NH2 [Compound R2118, Ac-YW SPWTECSA-NH2]"
23,> 100000,CC(C)(C)[C@H](NC(=O)[C@H](CCCNC(=N)N)NC(=O)[C@@H]1CCn2cc(nn2)CCCCCC(=O)N2CCC[C@H]2C(=O)N[C@@H](C2CCCCC2)C(=O)N1)C(N)=O [Compound R2251]
24,1100,CC(C)(C)[C@H](NC(=O)[C@H](CCCNC(=N)N)NC(=O)[C@@H]1CSCc2cccc(c2)CC(=O)N[C@@H](CCC(=O)O)C(=O)N2CCC[C@H]2C(=O)N[C@@H](C2CCCCC2)C(=O)N1)C(N)=O [Compound R2264] (EP[Chg]CR[Tle]-NH2; linker N-4 via X2)
25,> 100000,"CC(=O)N[C@H](C(=O)N[C@H]1CSCc2cccc(c2)CSC[C@@H](C(N)=O)NC(=O)[C@@H]2CCCN2C(=O)[C@H](C(C)C)NC(=O)[C@H](CCCNC(=N)N)NC1=O)C1CCCCC1 [Compound R2160, [mXylyl(2,6)]Ac-Chg-CR-V-PC-NH2] (Ac-[Chg]CRVPC-NH2; linker 2-6 via mXylylene)"
26,3.5,"CSCC[C@H](N)C(=O)N[C@@H](CS)C(=O)N[C@@H](CC(N)=O)C(=O)N[C@@H](Cc1ccc(O)cc1)C(=O)N[C@@H](Cc1c[nH]c2ccccc12)C(=O)N[C@@H](CO)C(=O)N1CCC[C@H]1C(=O)N[C@@H](Cc1c[nH]c2ccccc12)C(=O)N[C@H](C(=O)N[C@@H](CCC(=O)O)C(=O)N[C@@H](CS)C(=O)N[C@@H](CO)C(N)=O)[C@@H](C)O [Compound R2110, MCNYWSPWTECS-NH2] (H-MCNYWSPWTECS-NH2; N-terminus assumed)"
27,> 20100,"CC(=O)N[C@H](C(=O)N[C@H]1CSCc2cccc(c2)CSC[C@@H](C(N)=O)NC(=O)[C@H](C)NC(=O)[C@H](C(C)C)NC(=O)[C@H](CCCNC(=N)N)NC1=O)C1CCCCC1 [Compound R2159, [mXylyl(2,6)]Ac-Chg-CR-V-AC-NH2] (Ac-[Chg]CRVAC-NH2; linker 2-6 via mXylylene)"
28,1.9,"C[C@@H]1NC(=O)C2(CCCC2)NC(=O)CCSCc2cccc(c2)CSC[C@@H](C(=O)N[C@@H](CCCNC(=N)N)C(=O)N[C@H](C(N)=O)C(C)(C)C)NC(=O)[C@H](C2CCCCC2)NC1=O [Compound R2169, [mXylyl(1,5)](des-NH2)C-(Cyclo-L)-A-Chg-CR-Tbg-NH2] ([Mpa][Ac5c]A[Chg]CR[Tle]-NH2; linker 1-5 via mXylylene)"
